Data on one compound can be found in US12122833B2, “Combination therapies of HDAC inhibitors and PD-1 inhibitors” (HUYABIO International, LLC, priority 2016, dated 2024).

Structures are written as SMILES.

The target in one test is T1, HDAC 11 (Homo sapiens, UniProt Q96DB2).
T1 sequence (Q96DB2 1-347): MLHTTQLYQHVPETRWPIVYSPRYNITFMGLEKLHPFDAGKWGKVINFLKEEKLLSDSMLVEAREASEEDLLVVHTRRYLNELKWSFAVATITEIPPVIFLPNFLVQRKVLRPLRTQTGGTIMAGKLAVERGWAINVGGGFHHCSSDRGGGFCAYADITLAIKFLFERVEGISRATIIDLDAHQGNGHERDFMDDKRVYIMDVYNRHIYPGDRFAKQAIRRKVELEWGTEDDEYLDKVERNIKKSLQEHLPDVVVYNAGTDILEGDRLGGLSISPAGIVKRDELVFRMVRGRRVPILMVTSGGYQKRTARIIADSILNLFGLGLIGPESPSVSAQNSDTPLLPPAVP
The conditions noted are these: cited from earlier work.

Test [1] concerns MC38 murine colon carcinoma. The test is described as follows: Example 3: second-line therapy after PD-L1 inhibitor antibody failure, MC38 syngeneic model in C57BL/6 mice. It is filed as in vivo, mouse. The source says: In this model, a proportion of the animals treated 1st line with the PD-L1 checkpoint inhibitor antibody experience complete tumor regression. However, a similar proportion of animals treated 1st line with the PD-L1 inhibitor antibody experience rapid tumor progression. The balance of the animals treated in this way experience slow tumor progression or stable disease, which is a result which approximates the situation in a number of human cancer patients receiving PD-L1 inhibitor antibody therapy, i.e., they experience a transient partial response, including stable disease, but then develop resistance and rapidly progress, failing PD-1 inhibitor antibody therapy. In this example, the efficacy of HBI-8000 as a second-line therapy, alone and in combination with PD-1 inhibitor antibody RMPI-14, was evaluated for the ability to cause tumor growth delay (TGD) in animals which tumors which are progressing following PD-L1 inhibitor antibody first line therapy in the MC38 murine colon carcinoma syngeneic model in immunocompetent C57BL/6 mice.
Female C57BL/6 mice bearing subcutaneous MC38 tumors (mean tumor volume: 114 mm^3 when treatment began) were treated with a first line of therapy of PD-L1 inhibitor antibody treatment, administered intraperitoneally (i.p.) at 5 mg/kg, twice weekly for two weeks (biwk×2). […] Dosing began on D1, which represents the day of recruitment and varied among mice (this was normalized for each group). The second-line therapies were as follows. Vehicle was administered orally (p.o.). HBI-8000 was administered p.o. at 50 mg/kg. PD-1 inhibitor antibody and anti-PDL-1 were administered intraperitoneally (i.p) at 5 mg/kg. Group 1 mice served as controls and received 0.2% carboxymethyl cellulose: 0.1% Tween 80 in deionized water (vehicle) once daily for twenty-one days (qd×21). Group 2 received HBI-8000 qd×21. Group 3 received a second course of PD-L1 inhibitor antibody biwk×2. Group 4 received HBI-8000 qd×21 and PD-L1 inhibitor antibody biwk×2. Group 5 received anti-PD-1 biwk×2. Group 6 received HBI-8000 qd×21 and anti-PD-1 biwk×2. The study endpoint was tumor volume of 1500 mm^3 or 45 days, whichever came first. Tumor measurements were taken twice weekly until D44 with individual animals exiting the study upon reaching the tumor volume endpoint.
Tumor Implantation and Measurement: Details of tumor implantation and measurement of tumor growth used in this example can be found in Example 1. In this example, each mouse was inoculated subcutaneously in the right flank with 5×10^5 cells (0.1 mL of cell suspension).
Test Articles: HUYA Bioscience International provided HBI-8000 (Lot No. 1384:0033). PD-1 inhibitor antibody RMPI-14 (Lot No. 5611-10/0615) and PDL-1 antibody 10F.9G2 (anti-PDL-1, Lot No. 5786-7-8/0815) were purchased from Bio X cell (West Lebanon, N.H.). All agents were prepared according to protocol instructions.
Dosing Solutions: HBI-8000 was prepared by diluting in 0.2% CMC: 0.1% Tween 80 to yield a 5 mg/mL dosing solution. Dosing solutions were prepared fresh weekly and stored at 4° C. PD-1 inhibitor antibody dosing solution was prepared by diluting an aliquot of the stock (8.62 mg/mL) to 0.5 mg/mL in sterile PBS. The dosing solution was prepared twice weekly and stored at 4° C. Anti-PDL-1 antibody dosing solution was prepared by diluting an aliquot of the stock (5.37 mg/mL) to 0.5 mg/mL in sterile PBS. The anti-PDL-1 antibody dosing solution was prepared twice weekly and stored at 4° C.
Treatment: For the initial PD-L1 inhibitor antibody failure part of this study, 150 C57BL/6 mice were dosed i.p. with first line PD-L1 inhibitor antibody at 5 mg/kg, biwk×2. Animals that met the criteria for reenrollment comprised the efficacy study; this included animals with two consecutive increases in tumor volume and tumor volumes below 500 mm^3. […]

[2] abbreviates: HBI-8000 50 mg/kg p.o. qd×21, antibodies 5 mg/kg i.p., vs vehicle.

For the compound `Nc1cc(F)ccc1NC(=O)c1ccc(CNC(=O)/C=C/c2cccnc2)cc1` [HBI-8000, N-(2-amino-4-fluorophenyl)-4-[[[(2E)-1-oxo-3-(3-pyridinyl)-2-propen-1-yl]amino]methyl]benz amide], the “activity at HDAC 11” value at HDAC 11 is reported as “has activity”. Besides, the “activity at HDAC 11 compared with Entinostat” value at HDAC 11 (reported by Ning et al.) is given as “more active than Entinostat”. The “Median TTE” value in test [1] (HBI-8000 50 mg/kg p.o. qd×21, antibodies 5 mg/kg i.p., endpoint 1500 mm^3 or 45 days, n=10) turned out to be 11.4 days. In test [1] (setting [2]), the “% TGD” value is listed as 31.8% and the “Mean T-C” value stood at 3.0 days. Moreover, in test [1] (n=10 per group), the “CR (complete response), number of animals” value stood at 1; the “NR (no response), number of animals” value is recorded as 8; the “PR (partial response), number of animals” value came to 1.
